Laboratory results taken from ChEMBL document CHEMBL1201862, “PubChem BioAssay data set” (2004).
The source made the active and inactive calls.

Tests used:
Format in all cases: functional
[1] = target: T1, Low molecular weight phosphotyrosine protein phosphatase (Homo sapiens, UniProt P24666); conditions: read-out: IC50_Mean
[2] = target: T1, Low molecular weight phosphotyrosine protein phosphatase; conditions: read-out: IC50_Mean; remark: listed apart in the source
[3] = target: DNA (cytosine-5)-methyltransferase 1 (Homo sapiens, UniProt P26358); test: DNMT1 methyltransferase inhibitors, confirmation, biochemical, fluorescent molecular beacon (AID 602386)
[4] = intracellular Trypanosoma cruzi inhibitors in host cells – cell-based, plate reader, cherry-pick samples, set 3, dose response (AID 651818);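 note: compounds incubated with infected cells for about four days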
[5] = NIH/3T3 fibroblast cytotoxicity, dose response, cytotoxicity control for T. cruzi growth inhibitor project, cell-based, cherry-pick samples, set 2 (AID 651817); conditions: NIH3T3
[6] = LMP1-driven NF-kB reporter inhibition, dose response, cell-based, luciferase reporter, luminescence, dry powder, set 2 (AID 624376)
[7] = HEK293 cell viability, dose response, counter-screen for EBV LMP1 inhibitor project, dry powder, set 2 (AID 624374)
[8] = target: Arf-GAP with SH3 domain, ANK repeat and PH domain-containing protein 1 (Homo sapiens, UniProt Q9ULH1);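 note: biochemical fluorescence polarization dose–response screen measuring inhibition of ASAP1; ASAP1 GAP domain stimulating GTP hydrolysis by truncated human ARF1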
Chain of Arf-GAP with SH3 domain, ANK repeat and PH domain-containing protein 1 (Q9ULH1 whole entry, the tested form may be a part): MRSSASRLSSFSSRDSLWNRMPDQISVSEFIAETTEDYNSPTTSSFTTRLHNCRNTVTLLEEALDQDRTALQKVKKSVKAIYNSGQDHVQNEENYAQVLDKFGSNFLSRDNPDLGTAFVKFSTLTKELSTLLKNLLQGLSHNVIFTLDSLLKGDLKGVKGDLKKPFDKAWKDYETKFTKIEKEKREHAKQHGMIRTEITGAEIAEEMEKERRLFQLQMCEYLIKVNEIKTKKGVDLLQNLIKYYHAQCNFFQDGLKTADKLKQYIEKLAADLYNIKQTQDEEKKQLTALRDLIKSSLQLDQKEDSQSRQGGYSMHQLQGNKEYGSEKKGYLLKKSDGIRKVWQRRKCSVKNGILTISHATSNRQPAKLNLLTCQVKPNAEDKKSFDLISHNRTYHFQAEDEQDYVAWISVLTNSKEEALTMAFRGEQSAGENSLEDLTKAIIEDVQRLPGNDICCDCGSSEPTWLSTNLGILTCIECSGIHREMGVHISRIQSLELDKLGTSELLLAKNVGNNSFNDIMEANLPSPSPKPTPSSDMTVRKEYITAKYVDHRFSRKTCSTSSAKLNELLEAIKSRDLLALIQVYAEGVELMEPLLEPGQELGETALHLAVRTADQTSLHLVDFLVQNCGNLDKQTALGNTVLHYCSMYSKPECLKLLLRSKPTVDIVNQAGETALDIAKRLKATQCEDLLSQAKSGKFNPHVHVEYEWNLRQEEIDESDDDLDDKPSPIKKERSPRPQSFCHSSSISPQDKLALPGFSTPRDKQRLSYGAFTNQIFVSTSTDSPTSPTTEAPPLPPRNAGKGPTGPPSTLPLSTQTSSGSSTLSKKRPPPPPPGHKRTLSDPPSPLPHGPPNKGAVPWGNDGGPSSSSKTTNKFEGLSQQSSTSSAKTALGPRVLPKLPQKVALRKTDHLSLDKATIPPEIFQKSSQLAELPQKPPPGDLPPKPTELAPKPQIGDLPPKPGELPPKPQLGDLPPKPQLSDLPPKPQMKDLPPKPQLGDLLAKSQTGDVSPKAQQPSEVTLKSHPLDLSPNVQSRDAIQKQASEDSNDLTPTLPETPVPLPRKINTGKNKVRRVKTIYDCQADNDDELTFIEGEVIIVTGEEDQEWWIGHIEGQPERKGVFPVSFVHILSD

T1 sequence (P24666 whole entry): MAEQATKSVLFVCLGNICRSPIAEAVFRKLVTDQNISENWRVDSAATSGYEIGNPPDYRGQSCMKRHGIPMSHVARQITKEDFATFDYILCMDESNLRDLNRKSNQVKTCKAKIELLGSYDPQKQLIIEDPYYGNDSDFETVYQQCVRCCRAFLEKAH
Chain of DNA (cytosine-5)-methyltransferase 1 (P26358 whole entry): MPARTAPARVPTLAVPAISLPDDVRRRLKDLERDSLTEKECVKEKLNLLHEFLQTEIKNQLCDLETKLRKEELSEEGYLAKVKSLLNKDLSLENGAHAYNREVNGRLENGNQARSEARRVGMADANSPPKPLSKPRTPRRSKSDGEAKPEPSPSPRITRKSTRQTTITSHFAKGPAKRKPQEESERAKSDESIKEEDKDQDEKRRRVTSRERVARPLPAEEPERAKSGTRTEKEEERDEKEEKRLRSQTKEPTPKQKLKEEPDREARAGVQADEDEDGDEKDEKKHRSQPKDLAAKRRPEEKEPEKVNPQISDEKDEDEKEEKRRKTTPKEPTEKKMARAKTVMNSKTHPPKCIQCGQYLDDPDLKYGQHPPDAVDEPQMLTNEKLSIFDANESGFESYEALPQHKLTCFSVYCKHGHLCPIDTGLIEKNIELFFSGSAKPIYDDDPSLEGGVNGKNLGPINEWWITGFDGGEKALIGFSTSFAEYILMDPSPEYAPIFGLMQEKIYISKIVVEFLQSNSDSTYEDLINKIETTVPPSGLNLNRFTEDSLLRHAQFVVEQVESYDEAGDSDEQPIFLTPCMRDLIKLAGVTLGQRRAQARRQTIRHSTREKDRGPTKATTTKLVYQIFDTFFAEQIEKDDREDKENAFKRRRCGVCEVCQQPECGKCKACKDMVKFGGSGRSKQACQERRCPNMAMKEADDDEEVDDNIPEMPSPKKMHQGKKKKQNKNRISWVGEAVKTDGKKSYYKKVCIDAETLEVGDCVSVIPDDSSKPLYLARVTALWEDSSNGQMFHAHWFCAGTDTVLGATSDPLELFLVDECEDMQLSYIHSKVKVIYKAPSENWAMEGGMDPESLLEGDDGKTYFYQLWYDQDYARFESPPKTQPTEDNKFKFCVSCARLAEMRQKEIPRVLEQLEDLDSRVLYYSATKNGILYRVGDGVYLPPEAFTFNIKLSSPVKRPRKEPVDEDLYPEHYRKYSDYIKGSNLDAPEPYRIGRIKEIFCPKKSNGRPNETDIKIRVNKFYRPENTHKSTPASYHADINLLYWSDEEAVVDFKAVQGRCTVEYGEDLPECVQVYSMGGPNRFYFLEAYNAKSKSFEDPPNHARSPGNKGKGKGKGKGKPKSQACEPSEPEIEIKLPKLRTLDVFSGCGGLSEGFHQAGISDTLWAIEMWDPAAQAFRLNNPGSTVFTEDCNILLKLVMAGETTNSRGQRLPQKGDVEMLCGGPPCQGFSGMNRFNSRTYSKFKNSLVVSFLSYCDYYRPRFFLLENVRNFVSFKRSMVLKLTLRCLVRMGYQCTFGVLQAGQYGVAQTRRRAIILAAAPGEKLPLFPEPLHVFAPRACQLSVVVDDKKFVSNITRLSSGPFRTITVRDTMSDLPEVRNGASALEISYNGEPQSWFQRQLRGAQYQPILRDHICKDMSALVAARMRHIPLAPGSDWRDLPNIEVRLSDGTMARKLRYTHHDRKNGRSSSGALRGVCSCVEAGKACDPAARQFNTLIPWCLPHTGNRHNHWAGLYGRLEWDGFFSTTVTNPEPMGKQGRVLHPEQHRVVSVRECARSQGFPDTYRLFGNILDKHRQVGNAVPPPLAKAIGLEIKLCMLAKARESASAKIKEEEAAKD

For `Cc1ccc(-c2nn(-c3ccccc3)cc2C=C2SC(=S)N(CCS(=O)(=O)O)C2=O)cc1`, the IC50 [1] was > 80 µM (inactive), the IC50 [2] was 10.4 µM (active) and the IC50 [3] was 4.93 µM (active).
For `Cc1ccc(S(=O)(=O)Nc2ccc3c(c2)CC(=O)N([C@@H](C)CO)C[C@H](C)[C@@H](CN(C)Cc2ccc(Cl)c(Cl)c2)O3)cc1`, the AC50 [4] was 3.89 µM (active) and the AC50 [5] was 8.45 µM (active).
`O=C(Cc1ccccn1)NCC[C@@H]1CC[C@H](NC(=O)Nc2ccc(Cl)cc2)[C@@H](CO)O1` showed an AbsAC35 [6] of 74.18 µM and an AbsAC35 [7] of 102.52 µM.
For `O=[N+]([O-])c1ccc(OCCOc2ccccc2/C=N/n2cnnc2)cc1`, the IC50 [8] was 22.5 µM (inactive).
